# Data taken from US9980967B1, “Method for overcoming drug resistance of EGFR mutation and cancerous stemness of human non-small cell lung carcinoma” (NATIONAL CHIAO TUNG UNIVERSITY, priority 2017, dated 2018).
# Key:
# [1] = test system: H1975 cells with EGFR (T790M) mutation; assay: MTT cell viability assay in H1975 cells; type: cell-based, human; settings: 0~40 μM for 24 hours, re-cultured 2 days, compared with Gefitinib
# From the text: (§1) A549 (ATCC number: CCL-185) was a non-small cell lung carcinoma cell line which expressed wild type EGFR and with K-Ras mutation (G12S). H1975 (ATCC number: CRL-5908) was a non-small cell lung carcinoma cell line which expressed EGFR L858R/T790M mutation. Oct4 and Nanog overexpression in A549-ON presented the properties of cancer stem-like cells, as well as epithelial-mesenchymal transdifferentiation. PLC26 was lung cancer cells that separated from pleural effusion of a clinical lung cancer patient (IRB number: 103-011-E). A549-ON cells were cultured in DMEM medium. A549 and H1975 cells were maintained in RPMI-1640 medium. PLC26 cells were maintained in LHC-9 medium. DMEM and RPMI medium were supplemented with 10% fetal bovine serum (FBS), 100 units/ml penicillin, 100 μg/ml streptomycin and sodium bicarbonate. LHC-9 medium was supplemented with 5% FBS and 100 units/ml penicillin. These cells were cultured at 37° C. and 5% CO2 in a humidified incubator.
# (§2) Please refer to FIG. 2. The H1975 cells were treated with 0˜40 μM of SP101 or Gefitinib for 24 hours. After treatment, the H1975 cells were re-cultured in fresh medium for 2 days. The cell viability was analyzed by MTT assays. The results were obtained from three independent experiments and the var represents the mean±S.E.M. ***p<0.001 indicates significant difference between Gefitinib and SP101 treated samples.
# [2] = target: T1, phosphorylated EGFR (Tyr 1068) (Homo sapiens, UniProt P00533, L858R/T790M); assay: Western blot of phosphorylated EGFR and total EGFR in H1975 cells; type: cell-based; settings: 20~30 μM for 24 hours
# T1 construct: endogenous in cells; host or cells: H1975 (ATCC CRL-5908)
# Procedure: EGFR binding cognate ligands may lead to autophosphorylation of receptor tyrosine kinase and subsequent activation of signal transduction pathways of cell survival. Besides, aberrant tyrosine kinase activation increases proliferation and drug resistance of malignant cells. Please refer to FIG. 3. H1975 cells were treated with 0˜30 μM of SP101 for 24 hours. The total protein extracts were prepared for Western blot analyses using specific antibodies, including rabbit anti-p-EGFR (Tyr1068), rabbit anti-EGFR and mouse anti-actin. Representative immunoblotting data were shown from one of three separate experiments with similar findings. Actin was an internal control protein.
# [3] = test system: H1975 xenograft tumors; assay: Xenografted human NSCLC (H1975) tumors in nude mice; type: in vivo; settings: 30 mg/kg once per four days
# From the text: The results were obtained from twelve mice and the bar represents the mean±S.E.M.**p<0.01, indicating significant difference between control and SP101 treatment group mice. ###p<0.001 indicates significant differences between SP101 and Gefitinib-treated mice.
# The tumor weight was means±*p<0.05 indicating significant differences between control and SP101 treatment group mice. #p<0.05 indicates significant differences between SP101 and Gefitinib-treated mice.
# NSCLC tumors in nude mice were established. Seven-week-old nude mice were subcutaneously injected with 3×10^6 H1975 cells. Please refer to FIGS. 7 and 8. After 7 to 10 days inoculation, the nude mice were treated with vehicle or 30 mg/kg SP101 or 30 mg/kg Gefitinib once per four days and tumor sizes in the nude mice were measured every four days. The nude mice were sacrificed after treatment for 16 days; the tumors were harvested to measure tumor volume/weight and further analyze tumor tissues. […] Please refer to FIG. 9.
# [4] = test system: A549 cells; assay: MTT cell viability assay in A549 cells; type: cell-based, human; settings: 0~40 μM for 24 hours, compared with Gefitinib
# Procedure: as §2, with “After” for “Please refer to FIG. 2. The H1975 cells were treated with 0˜40 μM of SP101 or Gefitinib for 24 hours. After”, “the” for “the H1975”, “bar” for “var”
# as §1, with “PLC26 cells were maintained in LHC-9 medium. DMEM and RPMI medium were supplemented with 10% fetal bovine serum (FBS), 100 units/ml penicillin, 100 μg/ml streptomycin and sodium bicarbonate. LHC-9 medium was supplemented with 5% FBS and 100 units/ml penicillin. These cells were cultured at 37° C. and 5% CO2 in a humidified incubator.” left out
# Please refer to FIG. 12. […] To compare the cell viability of SP101 and Gefitinib in K-Ras mutation-drug resistant A549 and A549-ON cell lines, the cells were treated with 0˜40 μM SP101 or Gefitinib for 24 hours, and analyzed by MTT assays. […] To determine the effect of SP101 and Gefitinib on the cell viability in cancer stem-like A549-ON cells, the cells were treated with 10˜40 μM SP101 or Gefitinib for 24 hours, and analyzed by MTT assays.
# [5] = target: T2, phosphorylated EGFR (Tyr1068) (Homo sapiens, UniProt P00533); assay: Western blot of phosphorylated EGFR and total EGFR in A549 cells; type: cell-based; settings: 10~40 μM for 24 hours
# T2 construct: endogenous in cells; host or cells: A549 (ATCC CCL-185)
# Procedure: At the end of treatment, the total protein extracts were prepared for Western blot analyses using specific antibodies, including rabbit anti-p-EGFR (Tyr1068), rabbit anti-EGFR and mouse anti-actin. Representative immunoblotting data were shown from one of three separate experiments with similar findings. Actin was an internal control protein.
# Please refer to FIG. 14. The expressions of phosphorylated EGFR and total EGFR proteins after treatment with SP101 (10˜40 μM for 24 hours) in the K-Ras mutation A549 cells were analyzed by Western blot. […] Please refer to FIG. 15. We further examined the apoptosis levels of SP101 in A549 cells by Annexin V and PI staining. The cells were trypsinized and then incubated with propidium iodide (5 μl) and Annexin V-FITC (5 μl) at room temperature for 5 min before flow cytometry.
# [6] = test system: A549-ON cells; assay: Annexin V/PI apoptosis flow cytometry in A549-ON cells; type: cell-based, human; settings: 30 μM
# Procedure: At the end of treatment, apoptosis was measured by Annexin V-PI staining using flow cytometry analysis. The population of Annexin V+/PI− cells represents cells undergoing early apoptosis (low right), whereas the fraction of Annexin V+/PI+ cell are those undergoing late apoptosis (upper right). The representative flow data were shown from one of three separate experiments with similar findings.
# The bar represents the mean±S.E.M. ***p<0.001 indicates significant difference between untreated and SP101 or Gefitinib treated samples.
# We compared the apoptosis levels of SP101 and Gefitinib in cancer stem-like A549-ON cells by Annexin V and PI staining. Please refer to FIG. 19. […] Please refer to FIG. 20. The average of total apoptosis follows SP101 and Gefitinib in the A549-ON cells around 69.29% and 7.59%, respectively.
structure (smiles),measurement,setting,value
"CCCCCCCCCCCCOC(=O)CCC(=O)N1CCN(CCCOc2cc3c(Nc4ccc(F)c(Cl)c4)ncnc3cc2OC)CC1 [SP101, dodecyl 4-(4-(3-(4-(3-chloro-4-fluorophenylamino)-7-methoxyquinazolin-6-yloxy)propyl)piperazin-1-yl)-4-oxobutanoate]",cell viability inhibition,[1],significantly higher in the SP101 group than in the Gefitinib group
same,phosphorylated EGFR (Tyr 1068) protein level,[2],significantly reduced
same,total EGFR protein level,[2],did not inhibit
same,body weight of the nude mice,[3]; during the treatment period,did not alter
same,tumor growth,"[3]; H1975 xenograft in nude mice, 16 days",significantly inhibited
same,tumor weight,"[3]; H1975 xenograft in nude mice, after sacrifice at 16 days, compared with Gefitinib",more potent on the inhibition of tumor weight than Gefitinib
same,reduction of cell viability,[4],more potent on the reduction of cell viability than Gefitinib
same,phosphorylated EGFR (Tyr1068) protein levels,[5],significantly reduced
same,total EGFR protein levels,[5],did not alter
same,"late apoptosis cells, compared with Gefitinib",[6],induced more late apoptosis cells than Gefitinib
same,levels of Annexin V+/PI− cells (early apoptosis) and Annexin V+/PI+ cells (late apoptosis),[6],significantly increased
same,average of total apoptosis,"[6]; early and late apoptosis, flow cytometry",around 69.29%
